{
  "source": "the supplement of paper PMC7661543",
  "note": "± gives the standard deviation of the averaged measurements.",
  "data": [
    {"system": "BT-20", "assay": "relative cell number vs DMSO control (72 h) (% of DMSO); higher = less growth inhibition (more cells)", "details": "sgRNA knockout: sgNT, 1000 nM", "method": "(§1)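 QMAP-Seq: a pool of 5 breast cancer cell lines (ZR-75-1, SKBR3, HCC-38, MDA-MB-231, BT-20), each carrying 12 doxycycline-inducible Cas9 sgRNA perturbations (11 knockouts plus non-targeting sgNT), was treated with compounds for 72 h at four 10-fold doses (10 nM-10 uM or 1 nM-1 uM range). Barcodes were amplified and sequenced, and cell number was interpolated from 293T spike-in standard curves. The result is expressed as % of the median of DMSO wells. Two biological replicates.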", "values": [
      {"smiles": "C[C@]1(c2nc3c(C(N)=O)cccc3[nH]2)CCCN1", "note": "[Veliparib]", "relative cell number": "118 ± 38"},
      {"smiles": "COc1cc(Nc2ncc3c(n2)-c2ccc(Cl)cc2C(c2c(F)cccc2OC)=NC3)ccc1C(=O)O", "note": "[Alisertib]", "relative cell number": "77.8 ± 24"},
      {"smiles": "Cc1cc(N2CCOCC2)cc2[nH]c(-c3c(NC[C@@H](O)c4cccc(Cl)c4)cc[nH]c3=O)nc12", "relative cell number": "94 ± 14"},
      {"smiles": "Cc1ccc(S(=O)(=O)OCC(=O)Nc2ccc(C(=O)O)c(O)c2)cc1", "relative cell number": "108 ± 17"},
      {"smiles": "CC(C)[C@]12O[C@H]1[C@@H]1O[C@]13[C@]1(O[C@H]1C[C@H]1C4=C(CC[C@@]13C)C(=O)OC4)[C@@H]2O", "note": "[Triptolide]", "relative cell number": "20.8 ± 7.7"},
      {"smiles": "C#Cc1cccc(Nc2ncnc3cc(OCCOC)c(OCCOC)cc23)c1", "note": "[Erlotinib]", "relative cell number": "81.9 ± 2"},
      {"smiles": "Cc1ccc(C(=O)N(CCCN)[C@@H](c2oc3cc(Cl)ccc3c(=O)c2Cc2ccccc2)C(C)C)cc1", "relative cell number": "33.7 ± 11"},
      {"smiles": "CS(=O)(=O)N1CCN(Cc2cc3nc(-c4cccc5[nH]ncc45)nc(N4CCOCC4)c3s2)CC1", "note": "[GDC0941]", "relative cell number": "59.6 ± 12"},
      {"smiles": "Cc1nc(Nc2n[nH]c3c2CN(C(=O)N[C@H](CN(C)C)c2ccccc2)C3(C)C)c2sccc2n1", "relative cell number": "31.8 ± 6.6"},
      {"smiles": "C=CCc1cccc(/C=N/NC(=O)CN2CCN(Cc3ccccc3)CC2)c1O", "note": "[PAC1]", "relative cell number": "74.6 ± 4.9"},
      {"smiles": "COc1cc2nccc(Oc3ccc(NC(=O)C4(C(=O)Nc5ccc(F)cc5)CC4)cc3)c2cc1OC", "note": "[Cabozantinib]", "relative cell number": "94.5 ± 5"}
    ]},
    {"system": "BT-20", "assay": "relative cell number vs DMSO control (72 h) (% of DMSO); higher = less growth inhibition (more cells)", "details": "sgRNA knockout: sgNT, 10000 nM", "method": "as §1", "values": [
      {"smiles": "CC(C)(C)OC(=O)CN(Cc1ccc(Cl)cc1)Cc1ccc([N+](=O)[O-])s1", "note": "[GSK4112]", "relative cell number": "104 ± 3.4"},
      {"smiles": "C=C1C[C@@H]2[C@H](CC[C@]3(C)C(=O)CC[C@@H]23)[C@@]2(C)C=CC(=O)C=C12", "note": "[Exemestane]", "relative cell number": "95.4 ± 9.2"},
      {"smiles": "COc1cc([C@@H]2c3cc4c(cc3[C@@H](O[C@@H]3O[C@@H]5CO[C@@H](c6cccs6)O[C@H]5[C@H](O)[C@H]3O)[C@H]3COC(=O)[C@H]23)OCO4)cc(OC)c1O", "note": "[Teniposide]", "relative cell number": "22.6 ± 5.8"},
      {"smiles": "COc1cccc2cc(-c3nc([C@H]4CC[C@H](C(=O)O)CC4)n4ncnc(N)c34)[nH]c12", "note": "[OSI027]", "relative cell number": "52.5 ± 14"},
      {"smiles": "CN(C)C/C=C/C(=O)Nc1cc2c(Nc3ccc(F)c(Cl)c3)ncnc2cc1O[C@H]1CCOC1", "note": "[Afatinib]", "relative cell number": "20.2 ± 4.5"},
      {"smiles": "Cc1cnc(-c2cnc(NCCNc3ccc(C#N)cn3)nc2-c2ccc(Cl)cc2Cl)[nH]1", "relative cell number": "106 ± 22"},
      {"smiles": "O=C(O)CC[C@H]1CC[C@@](c2cc(F)ccc2F)(S(=O)(=O)c2ccc(Cl)cc2)CC1", "note": "[MK0752]", "relative cell number": "134 ± 1.4"},
      {"smiles": "CC[C@H](C)C(=O)O[C@H]1C[C@@H](C)C=C2C=C[C@H](C)[C@H](CC[C@@H]3C[C@@H](O)CC(=O)O3)[C@H]21", "note": "[Lovastatin]", "relative cell number": "78.8 ± 12"},
      {"smiles": "NC(=O)Nc1sc(-c2ccc(F)cc2)cc1C(N)=O", "note": "[TPCA1]", "relative cell number": "69.2 ± 3.1"},
      {"smiles": "C[C@]1(c2nc3c(C(N)=O)cccc3[nH]2)CCCN1", "note": "[Veliparib]", "relative cell number": "91.9 ± 25"},
      {"smiles": "COc1cc(Nc2ncc3c(n2)-c2ccc(Cl)cc2C(c2c(F)cccc2OC)=NC3)ccc1C(=O)O", "note": "[Alisertib]", "relative cell number": "68.3 ± 5.7"},
      {"smiles": "Cc1cc(N2CCOCC2)cc2[nH]c(-c3c(NC[C@@H](O)c4cccc(Cl)c4)cc[nH]c3=O)nc12", "relative cell number": "67.4 ± 17"},
      {"smiles": "Cc1ccc(S(=O)(=O)OCC(=O)Nc2ccc(C(=O)O)c(O)c2)cc1", "relative cell number": "95.6 ± 33"},
      {"smiles": "C#Cc1cccc(Nc2ncnc3cc(OCCOC)c(OCCOC)cc23)c1", "note": "[Erlotinib]", "relative cell number": "82.9 ± 8.9"},
      {"smiles": "Cc1ccc(C(=O)N(CCCN)[C@@H](c2oc3cc(Cl)ccc3c(=O)c2Cc2ccccc2)C(C)C)cc1", "relative cell number": "5.17 ± 2.2"},
      {"smiles": "CS(=O)(=O)N1CCN(Cc2cc3nc(-c4cccc5[nH]ncc45)nc(N4CCOCC4)c3s2)CC1", "note": "[GDC0941]", "relative cell number": "55.9 ± 24"},
      {"smiles": "Cc1nc(Nc2n[nH]c3c2CN(C(=O)N[C@H](CN(C)C)c2ccccc2)C3(C)C)c2sccc2n1", "relative cell number": "11.6 ± 6.4"},
      {"smiles": "C=CCc1cccc(/C=N/NC(=O)CN2CCN(Cc3ccccc3)CC2)c1O", "note": "[PAC1]", "relative cell number": "45.7 ± 18"},
      {"smiles": "COc1cc2nccc(Oc3ccc(NC(=O)C4(C(=O)Nc5ccc(F)cc5)CC4)cc3)c2cc1OC", "note": "[Cabozantinib]", "relative cell number": "49.8 ± 18"}
    ]},
    {"system": "HCC-38", "assay": "relative cell number vs DMSO control (72 h) (% of DMSO); higher = less growth inhibition (more cells)", "details": "sgRNA knockout: sgNT, 1 nM", "method": "as §1", "values": [
      {"smiles": "CC(C)[C@]12O[C@H]1[C@@H]1O[C@]13[C@]1(O[C@H]1C[C@H]1C4=C(CC[C@@]13C)C(=O)OC4)[C@@H]2O", "note": "[Triptolide]", "relative cell number": "97.9 ± 20"}
    ]},
    {"system": "HCC-38", "assay": "relative cell number vs DMSO control (72 h) (% of DMSO); higher = less growth inhibition (more cells)", "details": "sgRNA knockout: sgNT, 10 nM", "method": "as §1", "values": [
      {"smiles": "CC(C)(C)OC(=O)CN(Cc1ccc(Cl)cc1)Cc1ccc([N+](=O)[O-])s1", "note": "[GSK4112]", "relative cell number": "78.9 ± 4.7"},
      {"smiles": "C=C1C[C@@H]2[C@H](CC[C@]3(C)C(=O)CC[C@@H]23)[C@@]2(C)C=CC(=O)C=C12", "note": "[Exemestane]", "relative cell number": "108 ± 28"},
      {"smiles": "COc1cc([C@@H]2c3cc4c(cc3[C@@H](O[C@@H]3O[C@@H]5CO[C@@H](c6cccs6)O[C@H]5[C@H](O)[C@H]3O)[C@H]3COC(=O)[C@H]23)OCO4)cc(OC)c1O", "note": "[Teniposide]", "relative cell number": "87.1 ± 7.7"},
      {"smiles": "COc1cccc2cc(-c3nc([C@H]4CC[C@H](C(=O)O)CC4)n4ncnc(N)c34)[nH]c12", "note": "[OSI027]", "relative cell number": "108 ± 20"},
      {"smiles": "CN(C)C/C=C/C(=O)Nc1cc2c(Nc3ccc(F)c(Cl)c3)ncnc2cc1O[C@H]1CCOC1", "note": "[Afatinib]", "relative cell number": "94.6 ± 18"},
      {"smiles": "Cc1cnc(-c2cnc(NCCNc3ccc(C#N)cn3)nc2-c2ccc(Cl)cc2Cl)[nH]1", "relative cell number": "98.4 ± 21"},
      {"smiles": "O=C(O)CC[C@H]1CC[C@@](c2cc(F)ccc2F)(S(=O)(=O)c2ccc(Cl)cc2)CC1", "note": "[MK0752]", "relative cell number": "135 ± 24"},
      {"smiles": "CC[C@H](C)C(=O)O[C@H]1C[C@@H](C)C=C2C=C[C@H](C)[C@H](CC[C@@H]3C[C@@H](O)CC(=O)O3)[C@H]21", "note": "[Lovastatin]", "relative cell number": "96.5 ± 11"},
      {"smiles": "NC(=O)Nc1sc(-c2ccc(F)cc2)cc1C(N)=O", "note": "[TPCA1]", "relative cell number": "90.2 ± 2.3"},
      {"smiles": "C[C@]1(c2nc3c(C(N)=O)cccc3[nH]2)CCCN1", "note": "[Veliparib]", "relative cell number": "106 ± 11"},
      {"smiles": "COc1cc(Nc2ncc3c(n2)-c2ccc(Cl)cc2C(c2c(F)cccc2OC)=NC3)ccc1C(=O)O", "note": "[Alisertib]", "relative cell number": "99.89 ± 0.26"},
      {"smiles": "Cc1cc(N2CCOCC2)cc2[nH]c(-c3c(NC[C@@H](O)c4cccc(Cl)c4)cc[nH]c3=O)nc12", "relative cell number": "94.97 ± 0.84"},
      {"smiles": "Cc1ccc(S(=O)(=O)OCC(=O)Nc2ccc(C(=O)O)c(O)c2)cc1", "relative cell number": "119 ± 7.6"},
      {"smiles": "CC(C)[C@]12O[C@H]1[C@@H]1O[C@]13[C@]1(O[C@H]1C[C@H]1C4=C(CC[C@@]13C)C(=O)OC4)[C@@H]2O", "note": "[Triptolide]", "relative cell number": "66 ± 0.14"},
      {"smiles": "C#Cc1cccc(Nc2ncnc3cc(OCCOC)c(OCCOC)cc23)c1", "note": "[Erlotinib]", "relative cell number": "105 ± 3"},
      {"smiles": "Cc1ccc(C(=O)N(CCCN)[C@@H](c2oc3cc(Cl)ccc3c(=O)c2Cc2ccccc2)C(C)C)cc1", "relative cell number": "24 ± 0.85"},
      {"smiles": "CS(=O)(=O)N1CCN(Cc2cc3nc(-c4cccc5[nH]ncc45)nc(N4CCOCC4)c3s2)CC1", "note": "[GDC0941]", "relative cell number": "94.3 ± 5.9"},
      {"smiles": "Cc1nc(Nc2n[nH]c3c2CN(C(=O)N[C@H](CN(C)C)c2ccccc2)C3(C)C)c2sccc2n1", "relative cell number": "64.9 ± 5"},
      {"smiles": "C=CCc1cccc(/C=N/NC(=O)CN2CCN(Cc3ccccc3)CC2)c1O", "note": "[PAC1]", "relative cell number": "104 ± 7.8"}
    ]}
  ]
}
